What was measured:
Integrin alpha-4/beta-1 = Integrin alpha-4/beta-1 (Homo sapiens, UniProt P05556+P13612); assay: Inhibitory activity against very late antigen-4 (VLA-4) using VCAM-Ig ligand.; assay type: protein-complex assay
[1] = target: T1, Integrin alpha-4/beta-7 (Homo sapiens) (UniProt P13612+P26010); assay: Inhibition of MadCAM-Ig binding to alpha-4 beta-7 integrin at 20 uM; assay type: protein-complex assay
[2] = target: T1, Integrin alpha-4/beta-7 (Homo sapiens); assay: Inhibition of MadCAM-Ig binding to alpha-4 beta-7 integrin at 0.1 uM; assay type: protein-complex assay
Integrin alpha-4/beta-7 = target: T2, Integrin alpha-4/beta-7 (Homo sapiens, UniProt P13612+P26010); assay: Inhibition of MadCAM-Ig binding to alpha-4 beta-7 integrin; assay type: protein-complex assay
T2 sequence (P13612 whole entry): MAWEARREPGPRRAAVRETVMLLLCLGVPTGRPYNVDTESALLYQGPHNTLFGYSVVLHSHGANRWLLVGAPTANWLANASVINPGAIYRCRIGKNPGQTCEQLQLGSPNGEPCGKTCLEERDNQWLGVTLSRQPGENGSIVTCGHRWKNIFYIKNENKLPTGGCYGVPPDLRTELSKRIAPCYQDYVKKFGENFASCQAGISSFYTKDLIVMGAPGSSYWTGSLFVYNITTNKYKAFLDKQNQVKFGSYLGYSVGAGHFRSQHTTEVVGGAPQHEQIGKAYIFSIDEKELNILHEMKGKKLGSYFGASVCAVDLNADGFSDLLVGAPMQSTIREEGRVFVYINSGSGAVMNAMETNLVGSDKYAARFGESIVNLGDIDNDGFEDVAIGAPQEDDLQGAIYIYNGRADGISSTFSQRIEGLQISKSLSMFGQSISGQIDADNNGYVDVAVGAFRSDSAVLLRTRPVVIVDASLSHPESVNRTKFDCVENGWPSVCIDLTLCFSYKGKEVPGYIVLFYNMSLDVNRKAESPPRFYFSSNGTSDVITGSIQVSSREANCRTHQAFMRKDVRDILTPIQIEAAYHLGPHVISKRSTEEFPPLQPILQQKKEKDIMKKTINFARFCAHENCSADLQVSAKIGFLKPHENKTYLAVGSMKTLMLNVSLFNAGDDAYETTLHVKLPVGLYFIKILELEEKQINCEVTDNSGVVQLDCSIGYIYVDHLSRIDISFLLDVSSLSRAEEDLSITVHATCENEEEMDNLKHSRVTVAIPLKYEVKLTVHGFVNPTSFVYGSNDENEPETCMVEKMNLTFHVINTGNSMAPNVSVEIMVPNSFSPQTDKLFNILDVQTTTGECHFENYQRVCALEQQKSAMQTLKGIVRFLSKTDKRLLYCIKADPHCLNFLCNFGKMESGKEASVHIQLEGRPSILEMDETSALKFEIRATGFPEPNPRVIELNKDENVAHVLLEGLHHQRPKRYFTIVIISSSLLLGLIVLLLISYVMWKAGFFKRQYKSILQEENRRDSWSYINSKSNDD
T2 sequence (P26010 whole entry): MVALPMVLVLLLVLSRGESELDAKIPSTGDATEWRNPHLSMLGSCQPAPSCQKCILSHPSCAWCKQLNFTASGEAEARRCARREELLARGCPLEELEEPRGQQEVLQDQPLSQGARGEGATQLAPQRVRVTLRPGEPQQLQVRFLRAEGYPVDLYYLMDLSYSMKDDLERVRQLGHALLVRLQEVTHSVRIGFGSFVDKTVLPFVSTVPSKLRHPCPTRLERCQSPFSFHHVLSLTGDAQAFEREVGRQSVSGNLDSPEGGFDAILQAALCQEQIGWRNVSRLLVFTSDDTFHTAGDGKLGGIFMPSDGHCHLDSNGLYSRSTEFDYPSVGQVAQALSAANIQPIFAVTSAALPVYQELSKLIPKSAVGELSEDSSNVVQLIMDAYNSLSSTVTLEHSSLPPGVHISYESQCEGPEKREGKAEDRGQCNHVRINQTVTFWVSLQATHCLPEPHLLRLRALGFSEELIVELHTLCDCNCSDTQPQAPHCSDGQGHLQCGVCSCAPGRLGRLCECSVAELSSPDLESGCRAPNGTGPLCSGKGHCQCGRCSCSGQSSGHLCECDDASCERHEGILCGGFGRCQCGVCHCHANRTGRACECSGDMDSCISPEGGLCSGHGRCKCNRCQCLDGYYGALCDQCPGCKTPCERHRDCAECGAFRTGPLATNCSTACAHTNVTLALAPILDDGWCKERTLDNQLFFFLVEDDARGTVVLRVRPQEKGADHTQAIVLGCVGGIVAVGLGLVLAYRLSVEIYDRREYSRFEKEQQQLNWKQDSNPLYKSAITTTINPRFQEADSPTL

in vivo = settings: Sprague-Dawley, rat, plasma
[3] = Plasma clearance was reported in Sprague-Dawley rat
[4] = Volume of distribution was reported in Sprague-Dawley rat; settings: in vivo
Rattus norvegicus = species on record: Rattus norvegicus; assay: The plasma concentration versus time curve (AUC) was determined; settings: in vivo

Integrin alpha-4/beta-1, sequence (P05556 whole entry, one chain of several): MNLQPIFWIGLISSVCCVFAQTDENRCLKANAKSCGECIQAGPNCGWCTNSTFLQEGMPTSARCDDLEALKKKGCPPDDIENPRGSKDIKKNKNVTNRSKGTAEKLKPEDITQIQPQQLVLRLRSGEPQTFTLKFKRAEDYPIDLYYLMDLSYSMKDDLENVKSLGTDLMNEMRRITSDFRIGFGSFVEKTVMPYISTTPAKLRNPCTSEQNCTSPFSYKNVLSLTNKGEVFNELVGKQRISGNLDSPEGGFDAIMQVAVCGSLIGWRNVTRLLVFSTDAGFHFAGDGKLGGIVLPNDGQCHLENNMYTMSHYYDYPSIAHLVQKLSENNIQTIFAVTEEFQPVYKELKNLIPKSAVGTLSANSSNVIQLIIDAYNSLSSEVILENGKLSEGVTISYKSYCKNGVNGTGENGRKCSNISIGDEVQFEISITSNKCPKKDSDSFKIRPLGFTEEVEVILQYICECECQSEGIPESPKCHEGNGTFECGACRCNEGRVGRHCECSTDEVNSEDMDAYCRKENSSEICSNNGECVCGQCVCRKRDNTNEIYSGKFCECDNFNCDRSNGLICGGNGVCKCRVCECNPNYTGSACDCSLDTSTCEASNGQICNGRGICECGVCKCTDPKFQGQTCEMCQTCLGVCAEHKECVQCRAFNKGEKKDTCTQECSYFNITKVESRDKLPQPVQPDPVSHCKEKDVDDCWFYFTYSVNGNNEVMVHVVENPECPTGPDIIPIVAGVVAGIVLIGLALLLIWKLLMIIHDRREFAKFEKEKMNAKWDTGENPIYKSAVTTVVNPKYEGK

Structure (SMILES)	IC50 (Integrin alpha-4/beta-1)	also measured
C[C@@]1(C(=O)N[C@@H](Cc2ccc(I)cc2)C(=O)O)CCCN1S(=O)(=O)c1cc(Cl)cc(Cl)c1	4.77 nM	inhibition [1]: 58%
C[C@@]1(C(=O)N[C@@H](Cc2ccccc2Cl)C(=O)O)CCCN1S(=O)(=O)c1cc(Cl)cc(Cl)c1	1.8 nM	inhibition [2]: < 16%
O=C(O)[C@H](Cc1cccs1)NC(=O)[C@@H]1CCCN1S(=O)(=O)c1cc(Cl)cc(Cl)c1	0.92 nM	IC50 (Integrin alpha-4/beta-7): 2850 nM
C[C@@]1(C(=O)N[C@@H](Cc2cccs2)C(=O)O)CCCN1S(=O)(=O)c1cc(Cl)cc(Cl)c1	1.61 nM	inhibition [1]: 45%
O=C(O)[C@H](Cc1cc(F)cc(F)c1)NC(=O)[C@@H]1CCCN1S(=O)(=O)c1cc(Cl)cc(Cl)c1	1.1 nM	–
C[C@]1(C(=O)N[C@H](Cc2ccccc2)C(=O)O)CCCN1S(=O)(=O)c1cc(Cl)cc(Cl)c1	28400 nM	–
O=C(O)[C@H](Cc1cccc(C(F)(F)F)c1)NC(=O)[C@@H]1CCCN1S(=O)(=O)c1cc(Cl)cc(Cl)c1	3.2 nM	–
CCc1ccc(C[C@H](NC(=O)[C@]2(C)CCCN2S(=O)(=O)c2cc(Cl)cc(Cl)c2)C(=O)O)cc1	1.88 nM	inhibition [2]: 2%
C[C@@]1(C(=O)N[C@@H](Cc2ccc(OC(F)(F)F)cc2)C(=O)O)CCCN1S(=O)(=O)c1cc(Cl)cc(Cl)c1	3.8 nM	half-life (in vivo): 54 min; clearance [3]: 36 mL/min/kg; Vd [4]: 1.4 L/kg
C[C@@]1(C(=O)N[C@@H](Cc2ccc(Cl)cc2)C(=O)O)CCCN1S(=O)(=O)c1cc(Cl)cc(Cl)c1	2.3 nM	inhibition [2]: < 16%
O=C(O)[C@H](Cc1ccccn1)NC(=O)[C@@H]1CCCN1S(=O)(=O)c1cc(Cl)cc(Cl)c1	26.5 nM	–
C[C@@]1(C(=O)N[C@@H](Cc2ccccc2F)C(=O)O)CCCN1S(=O)(=O)c1cc(Cl)cc(Cl)c1	1.7 nM	inhibition [2]: < 5%
C[C@@]1(C(=O)N[C@@H](Cc2ccc(C(F)(F)F)cc2)C(=O)O)CCCN1S(=O)(=O)c1cc(Cl)cc(Cl)c1	3.9 nM	inhibition [2]: 25%
C[C@]1(C(=O)N[C@@H](Cc2ccccc2)C(=O)O)CCCN1S(=O)(=O)c1cc(Cl)cc(Cl)c1	2060 nM	–
C[C@@]1(C(=O)N[C@@H](Cc2ccccc2)C(=O)O)CCCN1S(=O)(=O)c1cc(Cl)cc(Cl)c1	1 nM	IC50 (Integrin alpha-4/beta-7): 3550 nM
C[C@@]1(C(=O)N[C@@H](Cc2ccc(C#N)cc2)C(=O)O)CCCN1S(=O)(=O)c1cc(Cl)cc(Cl)c1	1.6 nM	inhibition [2]: 29%
C[C@@]1(C(=O)N[C@@H](Cc2cccc(Cl)c2)C(=O)O)CCCN1S(=O)(=O)c1cc(Cl)cc(Cl)c1	1.7 nM	inhibition [2]: < 16%
C[C@@]1(C(=O)N[C@@H](Cc2ccncc2)C(=O)O)CCCN1S(=O)(=O)c1cc(Cl)cc(Cl)c1	1.31 nM	inhibition [2]: 13%
O=C(O)[C@H](Cc1cccnc1)NC(=O)[C@@H]1CCCN1S(=O)(=O)c1cc(Cl)cc(Cl)c1	0.86 nM	IC50 (Integrin alpha-4/beta-7): 2100 nM
C[C@@]1(C(=O)N[C@H](Cc2ccccc2)C(=O)O)CCCN1S(=O)(=O)c1cc(Cl)cc(Cl)c1	152 nM	–
O=C(O)[C@H](Cc1ccccc1Cl)NC(=O)[C@@H]1CCCN1S(=O)(=O)c1cc(Cl)cc(Cl)c1	0.99 nM	–
O=C(O)[C@H](Cc1ccc(Br)cc1)NC(=O)[C@@H]1CCCN1S(=O)(=O)c1cc(Cl)cc(Cl)c1	0.92 nM	–
O=C(O)[C@H](Cc1ccccc1F)NC(=O)[C@@H]1CCCN1S(=O)(=O)c1cc(Cl)cc(Cl)c1	1.3 nM	–
O=C(O)[C@H](Cc1cccc(Cl)c1)NC(=O)[C@@H]1CCCN1S(=O)(=O)c1cc(Cl)cc(Cl)c1	3.6 nM	–
C[C@@]1(C(=O)N[C@@H](Cc2cccc(F)c2)C(=O)O)CCCN1S(=O)(=O)c1cc(Cl)cc(Cl)c1	0.9 nM	inhibition [2]: < 5%
C[C@@]1(C(=O)N[C@@H](Cc2ccc(F)cc2)C(=O)O)CCCN1S(=O)(=O)c1cc(Cl)cc(Cl)c1	1.2 nM	inhibition [2]: < 5%; half-life (in vivo): 72 min; clearance [3]: 44 mL/min/kg; Vd [4]: 1.2 L/kg; plasma concentration (Rattus norvegicus): ~ 1 nM
C[C@@]1(C(=O)N[C@@H](Cc2ccc(O)cc2)C(=O)O)CCCN1S(=O)(=O)c1cc(Cl)cc(Cl)c1	0.86 nM	–

Continued, in another order:

IC50 (Integrin alpha-4/beta-1)	Structure (SMILES)	also measured
0.85 nM	O=C(O)[C@H](Cc1ccc(Cl)cc1)NC(=O)[C@@H]1CCCN1S(=O)(=O)c1cc(Cl)cc(Cl)c1	–
0.22 nM	CC(C)(C)Oc1ccc(C[C@H](NC(=O)[C@@H]2CCCN2S(=O)(=O)c2cc(Cl)cc(Cl)c2)C(=O)O)cc1	–
0.65 nM	O=C(O)[C@H](Cc1ccc(-c2ccccc2)cc1)NC(=O)[C@@H]1CCCN1S(=O)(=O)c1cc(Cl)cc(Cl)c1	–
0.67 nM	O=C(O)[C@H](Cc1ccncc1)NC(=O)[C@@H]1CCCN1S(=O)(=O)c1cc(Cl)cc(Cl)c1	inhibition [1]: 45%
0.86 nM	O=C(O)[C@H](Cc1ccc(OC(F)(F)F)cc1)NC(=O)[C@@H]1CCCN1S(=O)(=O)c1cc(Cl)cc(Cl)c1	–
0.48 nM	O=C(O)[C@H](Cc1ccc(F)c(F)c1)NC(=O)[C@@H]1CCCN1S(=O)(=O)c1cc(Cl)cc(Cl)c1	–
0.3 nM	O=C(O)[C@H](Cc1ccc([N+](=O)[O-])cc1)NC(=O)[C@@H]1CCCN1S(=O)(=O)c1cc(Cl)cc(Cl)c1	–
0.73 nM	O=C(O)[C@H](Cc1cscn1)NC(=O)[C@@H]1CCCN1S(=O)(=O)c1cc(Cl)cc(Cl)c1	IC50 (Integrin alpha-4/beta-7): 2350 nM
0.59 nM	COc1ccc(C[C@H](NC(=O)[C@]2(C)CCCN2S(=O)(=O)c2cc(Cl)cc(Cl)c2)C(=O)O)cc1	inhibition [2]: 16%; half-life (in vivo): 36 min; clearance [3]: 47 mL/min/kg; Vd [4]: 1.4 L/kg
0.48 nM	O=C(O)[C@H](Cc1ccc(F)cc1)NC(=O)[C@@H]1CCCN1S(=O)(=O)c1cc(Cl)cc(Cl)c1	–
0.67 nM	O=C(O)[C@H](Cc1cccc(F)c1)NC(=O)[C@@H]1CCCN1S(=O)(=O)c1cc(Cl)cc(Cl)c1	–
0.79 nM	N#Cc1ccc(C[C@H](NC(=O)[C@@H]2CCCN2S(=O)(=O)c2cc(Cl)cc(Cl)c2)C(=O)O)cc1	–
0.44 nM	CCc1ccc(C[C@H](NC(=O)[C@@H]2CCCN2S(=O)(=O)c2cc(Cl)cc(Cl)c2)C(=O)O)cc1	–
0.33 nM	O=C(O)[C@H](Cc1ccc(I)cc1)NC(=O)[C@@H]1CCCN1S(=O)(=O)c1cc(Cl)cc(Cl)c1	–
